From patent publication US9302999B2, “Substituted triazoles as herbicides” (E. I. DU PONT DE NEMOURS AND COMPANY, priority 2012, dated 2016)

Columns and labels:
Format in all cases: in vivo
[1] = test system: barnyardgrass (Echinochloa crus-galli); test: Test A pre-/postemergence: barnyardgrass; details: for Barnyardgrass plant response rating: Postemergence; for Plant response rating, Barnyardgrass: Preemergence
In short: (§1)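 Pre: directed soil spray after planting in loam + sand. Post: same formulation (non-phytotoxic solvent + surfactant) on 1–2-leaf plants, 2–10 cm. Greenhouse ~10 d; visual injury 0–100 vs untreated.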

[2] = test system: crabgrass, large (large crabgrass, Digitaria sanguinalis); test: Test A pre-/postemergence: crabgrass, large; details: for Crabgrass, Large plant response rating: Postemergence; for Plant response rating, Crabgrass, Large: Preemergence
In short: as §1

[3] = test system: foxtail, giant (giant foxtail, Setaria faberii); test: Test A pre-/postemergence: foxtail, giant; details: for Foxtail, Giant plant response rating: Postemergence; for Plant response rating, Foxtail, Giant: Preemergence
In short: as §1

[4] = test system: morningglory (Ipomoea spp.); test: Test A pre-/postemergence: morningglory; details: for Morningglory plant response rating: Postemergence; for Plant response rating, Morningglory: Preemergence
In short: as §1

[5] = test system: pigweed (Amaranthus retroflexus); test: Test A pre-/postemergence: pigweed; details: for Pigweed plant response rating: Postemergence; for Plant response rating, Pigweed: Preemergence
In short: as §1

[6] = test system: velvetleaf (Abutilon theophrasti); test: Test A pre-/postemergence: velvetleaf; details: for Velvetleaf plant response rating: Postemergence; for Plant response rating, Velvetleaf: Preemergence
In short: as §1

[7] = test system: wheat (Triticum aestivum); test: Test A pre-/postemergence: wheat; details: for Wheat plant response rating: Postemergence; for Plant response rating, Wheat: Preemergence
In short: as §1

corn (Zea mays) = test: Test A pre-/postemergence: corn; details: for Corn plant response rating: Postemergence; for Plant response rating, Corn: Preemergence
In short: as §1

rice (Oryza sativa) = test: Test C flooded paddy test: rice; details: scale 0 to 100 (0 no effect, 100 complete control)
In short: (§2)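 Plants at 2-leaf stage in pots flooded 3 cm above soil; compounds applied directly into the paddy water, depth maintained. Visual rating against controls after 13–15 days in greenhouse, scale 0 (no effect) to 100 (complete control).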

[8] = test system: sedge, umbrella (small-flower umbrella sedge, Cyperus difformis); test: Test C flooded paddy test: sedge, umbrella; details: scale 0 to 100 (0 no effect, 100 complete control)
In short: as §2

[9] = test system: ducksalad (Heteranthera limosa); test: Test C flooded paddy test: ducksalad; details: scale 0 to 100 (0 no effect, 100 complete control)
In short: as §2

[10] = test system: barnyardgrass (Echinochloa crus-galli); test: Test C flooded paddy test: barnyardgrass; details: scale 0 to 100 (0 no effect, 100 complete control)
In short: as §2

[11] = 125 g ai/ha, 0 to 100 scale, 0 is no effect, 100 is complete control
[12] = 500 g ai/ha, visual rating on 0 to 100 scale (0 no effect, 100 complete control), approximately ten days
[13] = 125 g ai/ha, 0 to 100 scale (0 no effect, 100 complete control)
[14] = 500 g ai/ha, 0 to 100 scale, 0 is no effect, 100 is complete control
[15] = Flood (flooded paddy test), 62 g ai/ha, visual rating after 13 to 15 days
[16] = Flood (flooded paddy test), 125 g ai/ha, visual rating after 13 to 15 days
[17] = Flood (flooded paddy test), 250 g ai/ha, visual rating after 13 to 15 days

SMILES: COc1nn(-c2ccc(C(F)(F)F)cc2)nc1Cn1nc(C(F)(F)F)cc1C(F)(F)F [Compound 30]
- Barnyardgrass plant response rating [1, 11]: 0
- Barnyardgrass plant response rating [1, 12]: 0
- Plant response rating, Barnyardgrass [1, 13]: 0
- Plant response rating, Barnyardgrass [1, 14]: 0
- Crabgrass, Large plant response rating [2, 11]: 0
- Crabgrass, Large plant response rating [2, 12]: 0
- Plant response rating, Crabgrass, Large [2, 13]: 0
- Plant response rating, Crabgrass, Large [2, 14]: 0
- Foxtail, Giant plant response rating [3, 11]: 0
- Foxtail, Giant plant response rating [3, 12]: 0
- Plant response rating, Foxtail, Giant [3, 13]: 0
- Plant response rating, Foxtail, Giant [3, 14]: 0
- Morningglory plant response rating [4, 11]: 0
- Morningglory plant response rating [4, 12]: 0
- Plant response rating, Morningglory [4, 13]: 0
- Plant response rating, Morningglory [4, 14]: 0
- Pigweed plant response rating [5, 11]: 0
- Pigweed plant response rating [5, 12]: 0
- Plant response rating, Pigweed [5, 13]: 0
- Plant response rating, Pigweed [5, 14]: 0
- Velvetleaf plant response rating [6, 11]: 0
- Velvetleaf plant response rating [6, 12]: 0
- Plant response rating, Velvetleaf [6, 13]: 0
- Plant response rating, Velvetleaf [6, 14]: 0
- Wheat plant response rating [7, 11]: 0
- Wheat plant response rating [7, 12]: 0
- Plant response rating, Wheat [7, 13]: 0
- Plant response rating, Wheat [7, 14]: 0
- Corn plant response rating (corn (Zea mays); [11]): 0
- Corn plant response rating (corn (Zea mays); [12]): 0
- Plant response rating, Corn (corn (Zea mays); [13]): 0
- Plant response rating, Corn (corn (Zea mays); [14]): 0
- Plant response rating, Rice (rice (Oryza sativa); [15]): 0
- Plant response rating, Rice (rice (Oryza sativa); [16]): 0
- Plant response rating, Rice (rice (Oryza sativa); [17]): 0
- Plant response rating, Rice (rice (Oryza sativa); Flood, 31 g ai/ha): 0
- Plant response rating, Sedge, Umbrella [8, 15]: 0
- Plant response rating, Sedge, Umbrella [8, 16]: 20
- Plant response rating, Sedge, Umbrella [8, 17]: 30
- Plant response rating, Sedge, Umbrella ([8]; Flood, 31 g ai/ha): 0
- Plant response rating, Ducksalad [9, 15]: 0
- Plant response rating, Ducksalad [9, 16]: 0
- Plant response rating, Ducksalad [9, 17]: 0
- Plant response rating, Ducksalad ([9]; Flood, 31 g ai/ha): 0
- Plant response rating, Barnyardgrass [10, 15]: 0
- Plant response rating, Barnyardgrass [10, 16]: 0
- Plant response rating, Barnyardgrass [10, 17]: 0
- Plant response rating, Barnyardgrass ([10]; Flood, 31 g ai/ha): 0

SMILES: COc1cc(Cc2nn(-c3ccc(C(F)(F)F)cc3)nc2C)ccn1 [Compound 31]
- Barnyardgrass plant response rating [1, 11]: 10
- Barnyardgrass plant response rating [1, 12]: 10
- Plant response rating, Barnyardgrass [1, 13]: 0
- Plant response rating, Barnyardgrass [1, 14]: 0
- Crabgrass, Large plant response rating [2, 11]: 10
- Crabgrass, Large plant response rating [2, 12]: 50
- Plant response rating, Crabgrass, Large [2, 13]: 0
- Plant response rating, Crabgrass, Large [2, 14]: 60
- Foxtail, Giant plant response rating [3, 11]: 10
- Foxtail, Giant plant response rating [3, 12]: 50
- Plant response rating, Foxtail, Giant [3, 13]: 30
- Plant response rating, Foxtail, Giant [3, 14]: 90
- Morningglory plant response rating [4, 11]: 20
- Morningglory plant response rating [4, 12]: 100
- Plant response rating, Morningglory [4, 13]: 0
- Plant response rating, Morningglory [4, 14]: 0
- Pigweed plant response rating [5, 11]: 60
- Pigweed plant response rating [5, 12]: 90
- Plant response rating, Pigweed [5, 13]: 0
- Plant response rating, Pigweed [5, 14]: 50
- Velvetleaf plant response rating [6, 11]: 10
- Velvetleaf plant response rating [6, 12]: 20
- Plant response rating, Velvetleaf [6, 13]: 0
- Plant response rating, Velvetleaf [6, 14]: 0
- Wheat plant response rating [7, 11]: 0
- Wheat plant response rating [7, 12]: 10
- Plant response rating, Wheat [7, 13]: 0
- Plant response rating, Wheat [7, 14]: 0
- Corn plant response rating (corn (Zea mays); [11]): 10
- Corn plant response rating (corn (Zea mays); [12]): 20
- Plant response rating, Corn (corn (Zea mays); [13]): 0
- Plant response rating, Corn (corn (Zea mays); [14]): 0
- Plant response rating, Rice (rice (Oryza sativa); [15]): 0
- Plant response rating, Rice (rice (Oryza sativa); [16]): 0
- Plant response rating, Rice (rice (Oryza sativa); [17]): 0
- Plant response rating, Rice (rice (Oryza sativa); Flood, 31 g ai/ha): 0
- Plant response rating, Sedge, Umbrella [8, 15]: 0
- Plant response rating, Sedge, Umbrella [8, 16]: 0
- Plant response rating, Sedge, Umbrella [8, 17]: 0
- Plant response rating, Sedge, Umbrella ([8]; Flood, 31 g ai/ha): 0
- Plant response rating, Ducksalad [9, 15]: 0
- Plant response rating, Ducksalad [9, 16]: 0
- Plant response rating, Ducksalad [9, 17]: 0
- Plant response rating, Ducksalad ([9]; Flood, 31 g ai/ha): 0
- Plant response rating, Barnyardgrass [10, 15]: 0
- Plant response rating, Barnyardgrass [10, 16]: 0
- Plant response rating, Barnyardgrass [10, 17]: 0
- Plant response rating, Barnyardgrass ([10]; Flood, 31 g ai/ha): 0

SMILES: Cc1nn(-c2ccc(C(F)(F)F)cc2)nc1Cn1cc(C(F)(F)F)cn1 [Compound 32]
- Barnyardgrass plant response rating [1, 11]: 10
- Barnyardgrass plant response rating [1, 12]: 10
- Plant response rating, Barnyardgrass [1, 13]: 0
- Plant response rating, Barnyardgrass [1, 14]: 0
- Crabgrass, Large plant response rating [2, 11]: 20
- Crabgrass, Large plant response rating [2, 12]: 30
- Plant response rating, Crabgrass, Large [2, 13]: 10
- Plant response rating, Crabgrass, Large [2, 14]: 30
- Foxtail, Giant plant response rating [3, 11]: 10
- Foxtail, Giant plant response rating [3, 12]: 20
- Plant response rating, Foxtail, Giant [3, 13]: 10
- Plant response rating, Foxtail, Giant [3, 14]: 80
- Morningglory plant response rating [4, 11]: 10
- Morningglory plant response rating [4, 12]: 50
- Plant response rating, Morningglory [4, 13]: 0
- Plant response rating, Morningglory [4, 14]: 0
- Pigweed plant response rating [5, 11]: 60
- Pigweed plant response rating [5, 12]: 100
- Plant response rating, Pigweed [5, 13]: 0
- Plant response rating, Pigweed [5, 14]: 70
- Velvetleaf plant response rating [6, 11]: 20
- Velvetleaf plant response rating [6, 12]: 20
- Plant response rating, Velvetleaf [6, 13]: 0
- Plant response rating, Velvetleaf [6, 14]: 0
- Wheat plant response rating [7, 11]: 0
- Wheat plant response rating [7, 12]: 0
- Plant response rating, Wheat [7, 13]: 0
- Plant response rating, Wheat [7, 14]: 0
- Corn plant response rating (corn (Zea mays); [11]): 0
- Corn plant response rating (corn (Zea mays); [12]): 10
- Plant response rating, Corn (corn (Zea mays); [13]): 0
- Plant response rating, Corn (corn (Zea mays); [14]): 0
- Plant response rating, Rice (rice (Oryza sativa); [15]): 0
- Plant response rating, Rice (rice (Oryza sativa); [16]): 0
- Plant response rating, Rice (rice (Oryza sativa); [17]): 0
- Plant response rating, Rice (rice (Oryza sativa); Flood, 31 g ai/ha): 0
- Plant response rating, Sedge, Umbrella [8, 15]: 0
- Plant response rating, Sedge, Umbrella [8, 16]: 0
- Plant response rating, Sedge, Umbrella [8, 17]: 0
- Plant response rating, Sedge, Umbrella ([8]; Flood, 31 g ai/ha): 0
- Plant response rating, Ducksalad [9, 15]: 0
- Plant response rating, Ducksalad [9, 16]: 0
- Plant response rating, Ducksalad [9, 17]: 0
- Plant response rating, Ducksalad ([9]; Flood, 31 g ai/ha): 0
- Plant response rating, Barnyardgrass [10, 15]: 0
- Plant response rating, Barnyardgrass [10, 16]: 0
- Plant response rating, Barnyardgrass [10, 17]: 0
- Plant response rating, Barnyardgrass ([10]; Flood, 31 g ai/ha): 0

SMILES: Cc1nn(-c2ccc(F)cc2)nc1Cn1cc(C(F)(F)F)nc1Cl [Compound 35]
- Barnyardgrass plant response rating [1, 11]: 40
- Barnyardgrass plant response rating [1, 12]: 90
- Plant response rating, Barnyardgrass [1, 13]: 60
- Plant response rating, Barnyardgrass [1, 14]: 90
- Crabgrass, Large plant response rating [2, 11]: 80
- Crabgrass, Large plant response rating [2, 12]: 90
- Plant response rating, Crabgrass, Large [2, 13]: 90
- Plant response rating, Crabgrass, Large [2, 14]: 100
- Foxtail, Giant plant response rating [3, 11]: 60
- Foxtail, Giant plant response rating [3, 12]: 90
- Plant response rating, Foxtail, Giant [3, 13]: 80
- Plant response rating, Foxtail, Giant [3, 14]: 100
- Morningglory plant response rating [4, 11]: 90
- Morningglory plant response rating [4, 12]: 100
- Plant response rating, Morningglory [4, 13]: 20
- Plant response rating, Morningglory [4, 14]: 50
- Pigweed plant response rating [5, 11]: 100
- Pigweed plant response rating [5, 12]: 100
- Plant response rating, Pigweed [5, 13]: 90
- Plant response rating, Pigweed [5, 14]: 100
- Velvetleaf plant response rating [6, 11]: 70
- Velvetleaf plant response rating [6, 12]: 100
- Plant response rating, Velvetleaf [6, 13]: 30
- Plant response rating, Velvetleaf [6, 14]: 50
- Wheat plant response rating [7, 11]: 10
- Wheat plant response rating [7, 12]: 60
- Plant response rating, Wheat [7, 13]: 0
- Plant response rating, Wheat [7, 14]: 0
- Corn plant response rating (corn (Zea mays); [11]): 20
- Corn plant response rating (corn (Zea mays); [12]): 50
- Plant response rating, Corn (corn (Zea mays); [13]): 10
- Plant response rating, Corn (corn (Zea mays); [14]): 30
- Plant response rating, Rice (rice (Oryza sativa); [15]): 0
- Plant response rating, Rice (rice (Oryza sativa); [16]): 0
- Plant response rating, Rice (rice (Oryza sativa); [17]): 0
- Plant response rating, Rice (rice (Oryza sativa); Flood, 31 g ai/ha): 0
- Plant response rating, Sedge, Umbrella [8, 15]: 75
- Plant response rating, Sedge, Umbrella [8, 16]: 80
- Plant response rating, Sedge, Umbrella [8, 17]: 80
- Plant response rating, Sedge, Umbrella ([8]; Flood, 31 g ai/ha): 75
- Plant response rating, Ducksalad [9, 15]: 65
- Plant response rating, Ducksalad [9, 16]: 70
- Plant response rating, Ducksalad [9, 17]: 75
- Plant response rating, Ducksalad ([9]; Flood, 31 g ai/ha): 40
- Plant response rating, Barnyardgrass [10, 15]: 0
- Plant response rating, Barnyardgrass [10, 16]: 0
- Plant response rating, Barnyardgrass [10, 17]: 30
- Plant response rating, Barnyardgrass ([10]; Flood, 31 g ai/ha): 0
